{
  "source": "ChEMBL document CHEMBL1649250",
  "about": "“Susceptibility of urinary tract bacteria to fosfomycin” (2009)",
  "key": {"Escherichia coli [1]": {"tested_on": "Escherichia coli", "test": "Antimicrobial activity against Escherichia coli obtained from urine sample of patient assessed as percent susceptible isolates by disk diffusion method", "format": "functional"}, "Enterobacter sp. [2]": {"tested_on": "Enterobacter sp.", "test": "Antimicrobial activity against Enterobacter sp. obtained from urine sample of patient assessed as percent susceptible isolates by disk diffusion method", "format": "functional"}, "Klebsiella pneumoniae [3]": {"tested_on": "Klebsiella pneumoniae", "test": "Antimicrobial activity against Klebsiella pneumoniae obtained from urine sample of patient assessed as percent susceptible isolates by disk diffusion method", "format": "functional"}, "Proteus mirabilis": {"tested_on": "Proteus mirabilis", "test": "Antimicrobial activity against Proteus mirabilis obtained from urine sample of patient assessed as percent susceptible isolates by disk diffusion method", "format": "functional"}, "Salmonella sp.": {"tested_on": "Salmonella sp.", "test": "Antimicrobial activity against Salmonella sp. obtained from urine sample of patient assessed as percent susceptible isolates by disk diffusion method", "format": "functional"}, "Serratia marcescens": {"tested_on": "Serratia marcescens", "test": "Antimicrobial activity against Serratia marcescens obtained from urine sample of patient assessed as percent susceptible isolates by disk diffusion method", "format": "functional"}, "[4]": {"tested_on": "Stenotrophomonas maltophilia", "test": "Antimicrobial activity against Stenotrophomonas maltophilia obtained from urine sample of patient assessed as percent susceptible isolates by disk diffusion method", "format": "functional"}, "[5]": {"tested_on": "Staphylococcus epidermidis", "test": "Antimicrobial activity against Staphylococcus epidermidis obtained from urine sample of patient assessed as percent susceptible isolates by disk diffusion method", "format": "functional, organism-based"}, "Acinetobacter baumannii": {"tested_on": "Acinetobacter baumannii", "test": "Antimicrobial activity against Acinetobacter baumannii obtained from urine sample of patient assessed as percent susceptible isolates by disk diffusion method", "format": "functional"}, "Pseudomonas aeruginosa [6]": {"tested_on": "Pseudomonas aeruginosa", "test": "Antimicrobial activity against Pseudomonas aeruginosa obtained from urine sample of patient assessed as percent susceptible isolates by disk diffusion method", "format": "functional"}, "[7]": {"tested_on": "Staphylococcus saprophyticus", "test": "Antimicrobial activity against Staphylococcus saprophyticus obtained from urine sample of patient assessed as percent susceptible isolates by disk diffusion method", "format": "functional"}, "Enterococcus faecalis": {"tested_on": "Enterococcus faecalis", "test": "Antimicrobial activity against Enterococcus faecalis obtained from urine sample of patient assessed as percent susceptible isolates by disk diffusion method", "format": "functional"}, "Enterococcus faecium": {"tested_on": "Enterococcus faecium", "test": "Antimicrobial activity against Enterococcus faecium obtained from urine sample of patient assessed as percent susceptible isolates by disk diffusion method", "format": "functional"}, "Streptococcus agalactiae": {"tested_on": "Streptococcus agalactiae", "test": "Antimicrobial activity against Streptococcus agalactiae obtained from urine sample of patient assessed as percent susceptible isolates by disk diffusion method", "format": "functional"}, "Klebsiella pneumoniae [8]": {"tested_on": "Klebsiella pneumoniae", "test": "Antimicrobial activity against colistin-nonsusceptible Klebsiella pneumoniae assessed as percent susceptible isolates by disk diffusion method", "format": "functional"}, "Klebsiella pneumoniae [9]": {"tested_on": "Klebsiella pneumoniae", "test": "Antimicrobial activity against carbapenemase-nonsusceptible Klebsiella pneumoniae assessed as percent susceptible isolates by disk diffusion method", "format": "functional"}, "Klebsiella pneumoniae [10]": {"tested_on": "Klebsiella pneumoniae", "test": "Antimicrobial activity against carbapenemase producing Klebsiella pneumoniae assessed as percent susceptible isolates by disk diffusion method", "format": "functional"}, "Pseudomonas aeruginosa [11]": {"tested_on": "Pseudomonas aeruginosa", "test": "Antimicrobial activity against carbapenemase-nonsusceptible Pseudomonas aeruginosa assessed as percent susceptible isolates by disk diffusion method", "format": "functional"}, "Escherichia coli [12]": {"tested_on": "Escherichia coli", "test": "Antimicrobial activity against cefotaxime-, ceftriaxone-, cefepime-, ceftazidime-, and aztreonam-nonsusceptible Escherichia coli assessed as percent susceptible isolates by disk diffusion method", "format": "functional"}, "Klebsiella pneumoniae [13]": {"tested_on": "Klebsiella pneumoniae", "test": "Antimicrobial activity against cefotaxime-, ceftriaxone-, cefepime-, ceftazidime-, and aztreonam-nonsusceptible Klebsiella pneumoniae assessed as percent susceptible isolates by disk diffusion method", "format": "functional"}, "Enterobacter sp. [14]": {"tested_on": "Enterobacter sp.", "test": "Antimicrobial activity against cefotaxime-, ceftriaxone-, cefepime-, ceftazidime-, and aztreonam-nonsusceptible Enterobacter sp. assessed as percent susceptible isolates by disk diffusion method", "format": "functional"}, "Pseudomonas aeruginosa [15]": {"tested_on": "Pseudomonas aeruginosa", "test": "Antimicrobial activity against cefotaxime-, ceftriaxone-, cefepime-, ceftazidime-, and aztreonam-nonsusceptible Pseudomonas aeruginosa assessed as percent susceptible isolates by disk diffusion method", "format": "functional"}, "Escherichia coli [16]": {"tested_on": "Escherichia coli", "test": "Antimicrobial activity against […] producing Escherichia coli assessed as percent susceptible isolates by disk diffusion method", "format": "functional"}, "Klebsiella pneumoniae [17]": {"tested_on": "Klebsiella pneumoniae", "test": "Antimicrobial activity against […] producing Klebsiella pneumoniae assessed as percent susceptible isolates by disk diffusion method", "format": "functional"}, "Klebsiella oxytoca": {"tested_on": "Klebsiella oxytoca", "test": "Antimicrobial activity against […] producing Klebsiella oxytoca assessed as percent susceptible isolates by disk diffusion method", "format": "functional"}, "Staphylococcus aureus": {"tested_on": "Staphylococcus aureus", "test": "Antimicrobial activity against Staphylococcus aureus obtained from urine sample of patient assessed as percent susceptible isolates by disk diffusion method", "format": "functional"}},
  "note": "Calls of active or inactive are those of the source. No cut-off for these calls is given here.",
  "data": [
    {"smiles": "C[C@@H]1O[C@@H]1P(=O)(O)O", "note": "[FOSFOMYCIN]", "values": [
      {"measurement": "Activity", "setting": "Escherichia coli [1]", "value": 100, "unit": "%"},
      {"measurement": "Activity", "setting": "Enterobacter sp. [2]", "value": 75, "unit": "%"},
      {"measurement": "Activity", "setting": "Klebsiella pneumoniae [3]", "value": 82.3, "unit": "%"},
      {"measurement": "Activity", "setting": "Proteus mirabilis", "value": 96.7, "unit": "%"},
      {"measurement": "Activity", "setting": "Salmonella sp.", "value": 66.6, "unit": "%"},
      {"measurement": "Activity", "setting": "Serratia marcescens", "value": 66.6, "unit": "%"},
      {"measurement": "Activity", "setting": "[4]", "value": 66.6, "unit": "%"},
      {"measurement": "Activity", "setting": "[5]", "value": "Active"},
      {"measurement": "Activity", "setting": "Acinetobacter baumannii", "value": 9, "unit": "%"},
      {"measurement": "Activity", "setting": "Pseudomonas aeruginosa [6]", "value": 85, "unit": "%"},
      {"measurement": "Activity", "setting": "[7]", "value": 100, "unit": "%"},
      {"measurement": "Activity", "setting": "Enterococcus faecalis", "value": 91.8, "unit": "%"},
      {"measurement": "Activity", "setting": "Enterococcus faecium", "value": 0, "unit": "%"},
      {"measurement": "Activity", "setting": "Streptococcus agalactiae", "value": 50, "unit": "%"},
      {"measurement": "Activity", "setting": "Klebsiella pneumoniae [8]", "value": 58.3, "unit": "%"},
      {"measurement": "Activity", "setting": "Klebsiella pneumoniae [9]", "value": 60, "unit": "%"},
      {"measurement": "Activity", "setting": "Klebsiella pneumoniae [10]", "value": 60, "unit": "%"},
      {"measurement": "Activity", "setting": "Pseudomonas aeruginosa [11]", "value": 88.8, "unit": "%"},
      {"measurement": "Activity", "setting": "Escherichia coli [12]", "value": 100, "unit": "%"},
      {"measurement": "Activity", "setting": "Klebsiella pneumoniae [13]", "value": 75, "unit": "%"},
      {"measurement": "Activity", "setting": "Enterobacter sp. [14]", "value": 100, "unit": "%"},
      {"measurement": "Activity", "setting": "Pseudomonas aeruginosa [15]", "value": 17, "unit": "%"},
      {"measurement": "Activity", "setting": "Escherichia coli [16]", "value": 100, "unit": "%"},
      {"measurement": "Activity", "setting": "Klebsiella pneumoniae [17]", "value": 100, "unit": "%"},
      {"measurement": "Activity", "setting": "Klebsiella oxytoca", "value": 0, "unit": "%"},
      {"measurement": "Activity", "setting": "Staphylococcus aureus", "value": 100, "unit": "%"}
    ]}
  ]
}
